Measured values taken from patent US6458781B1, “Substituted diarylalkyl amides as calcium channel antagonists” (priority 1998, dated 2002).
Counter-ions that a name gives are not always drawn.

Columns and labels:
[1] = target: T1, N-type calcium channels in IMR-32 cells (Homo sapiens, UniProt Q00975); assay: N-type Ca2+ channel blocking potency in IMR-32 cells using Indo-1; type: cell-based; settings: IMR-32 cells, 5 μM nitrendipine present; read-out: IMR32 IC50
T1 construct: host or cells: IMR-32 cells differentiated with dibutyryl cAMP and bromodeoxyuridine
T1 sequence (Q00975 whole entry): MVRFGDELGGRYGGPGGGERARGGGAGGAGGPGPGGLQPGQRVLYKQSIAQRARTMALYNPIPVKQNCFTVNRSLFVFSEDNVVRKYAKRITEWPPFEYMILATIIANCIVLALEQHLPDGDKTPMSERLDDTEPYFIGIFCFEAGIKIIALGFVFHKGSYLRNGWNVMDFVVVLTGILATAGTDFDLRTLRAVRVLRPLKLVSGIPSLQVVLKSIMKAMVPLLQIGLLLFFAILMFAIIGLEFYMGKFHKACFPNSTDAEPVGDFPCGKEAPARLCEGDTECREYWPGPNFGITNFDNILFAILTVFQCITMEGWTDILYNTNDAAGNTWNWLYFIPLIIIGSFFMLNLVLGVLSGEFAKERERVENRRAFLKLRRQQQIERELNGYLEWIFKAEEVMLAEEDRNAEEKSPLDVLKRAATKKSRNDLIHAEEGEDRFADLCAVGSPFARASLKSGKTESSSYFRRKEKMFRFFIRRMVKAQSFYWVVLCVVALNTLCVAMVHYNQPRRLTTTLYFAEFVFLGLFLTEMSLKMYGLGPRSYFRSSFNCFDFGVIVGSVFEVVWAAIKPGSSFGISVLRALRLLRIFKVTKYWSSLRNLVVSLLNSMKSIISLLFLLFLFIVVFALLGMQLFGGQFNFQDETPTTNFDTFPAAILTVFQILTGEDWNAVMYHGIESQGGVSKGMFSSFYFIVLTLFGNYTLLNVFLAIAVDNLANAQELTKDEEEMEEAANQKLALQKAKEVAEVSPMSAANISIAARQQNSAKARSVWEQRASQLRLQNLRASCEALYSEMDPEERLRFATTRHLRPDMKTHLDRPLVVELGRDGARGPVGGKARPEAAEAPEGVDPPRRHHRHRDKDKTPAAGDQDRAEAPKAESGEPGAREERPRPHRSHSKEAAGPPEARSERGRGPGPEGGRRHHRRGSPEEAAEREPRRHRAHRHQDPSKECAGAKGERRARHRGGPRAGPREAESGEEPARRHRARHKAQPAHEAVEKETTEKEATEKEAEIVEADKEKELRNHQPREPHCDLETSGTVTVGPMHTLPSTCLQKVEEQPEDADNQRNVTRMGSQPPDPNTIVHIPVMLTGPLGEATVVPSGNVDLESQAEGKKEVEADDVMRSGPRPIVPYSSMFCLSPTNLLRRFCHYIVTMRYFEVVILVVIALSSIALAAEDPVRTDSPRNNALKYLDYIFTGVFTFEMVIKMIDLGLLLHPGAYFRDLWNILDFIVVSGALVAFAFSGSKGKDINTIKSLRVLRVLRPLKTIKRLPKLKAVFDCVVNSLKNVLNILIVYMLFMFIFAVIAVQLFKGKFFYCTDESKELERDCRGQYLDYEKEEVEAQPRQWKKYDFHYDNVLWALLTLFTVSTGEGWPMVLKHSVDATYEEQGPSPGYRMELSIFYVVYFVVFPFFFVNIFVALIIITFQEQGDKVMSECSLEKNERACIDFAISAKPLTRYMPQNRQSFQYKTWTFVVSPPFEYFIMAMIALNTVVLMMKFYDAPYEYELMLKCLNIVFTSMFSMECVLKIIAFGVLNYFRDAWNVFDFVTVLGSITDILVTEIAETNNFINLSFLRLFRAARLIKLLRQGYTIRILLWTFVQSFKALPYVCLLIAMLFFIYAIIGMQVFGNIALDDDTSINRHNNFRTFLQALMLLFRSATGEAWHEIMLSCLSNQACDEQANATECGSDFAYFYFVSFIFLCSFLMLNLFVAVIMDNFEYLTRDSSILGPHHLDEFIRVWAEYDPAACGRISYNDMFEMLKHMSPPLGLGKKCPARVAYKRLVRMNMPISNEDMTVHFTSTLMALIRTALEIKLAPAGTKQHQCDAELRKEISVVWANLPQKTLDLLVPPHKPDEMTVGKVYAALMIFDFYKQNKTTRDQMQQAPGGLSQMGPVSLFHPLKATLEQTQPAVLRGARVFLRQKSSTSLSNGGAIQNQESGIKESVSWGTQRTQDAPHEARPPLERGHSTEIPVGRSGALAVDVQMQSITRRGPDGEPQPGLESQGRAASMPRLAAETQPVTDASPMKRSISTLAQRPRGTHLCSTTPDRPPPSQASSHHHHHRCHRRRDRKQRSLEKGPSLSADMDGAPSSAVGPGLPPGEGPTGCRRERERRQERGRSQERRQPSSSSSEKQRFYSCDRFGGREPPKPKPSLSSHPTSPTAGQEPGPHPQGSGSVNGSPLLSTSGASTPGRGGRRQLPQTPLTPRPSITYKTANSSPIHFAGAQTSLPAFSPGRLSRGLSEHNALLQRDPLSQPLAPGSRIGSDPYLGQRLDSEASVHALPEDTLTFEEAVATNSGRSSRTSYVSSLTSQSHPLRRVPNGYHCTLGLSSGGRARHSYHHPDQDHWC
T1 sequence (P54289 25-956 partner limits assumed): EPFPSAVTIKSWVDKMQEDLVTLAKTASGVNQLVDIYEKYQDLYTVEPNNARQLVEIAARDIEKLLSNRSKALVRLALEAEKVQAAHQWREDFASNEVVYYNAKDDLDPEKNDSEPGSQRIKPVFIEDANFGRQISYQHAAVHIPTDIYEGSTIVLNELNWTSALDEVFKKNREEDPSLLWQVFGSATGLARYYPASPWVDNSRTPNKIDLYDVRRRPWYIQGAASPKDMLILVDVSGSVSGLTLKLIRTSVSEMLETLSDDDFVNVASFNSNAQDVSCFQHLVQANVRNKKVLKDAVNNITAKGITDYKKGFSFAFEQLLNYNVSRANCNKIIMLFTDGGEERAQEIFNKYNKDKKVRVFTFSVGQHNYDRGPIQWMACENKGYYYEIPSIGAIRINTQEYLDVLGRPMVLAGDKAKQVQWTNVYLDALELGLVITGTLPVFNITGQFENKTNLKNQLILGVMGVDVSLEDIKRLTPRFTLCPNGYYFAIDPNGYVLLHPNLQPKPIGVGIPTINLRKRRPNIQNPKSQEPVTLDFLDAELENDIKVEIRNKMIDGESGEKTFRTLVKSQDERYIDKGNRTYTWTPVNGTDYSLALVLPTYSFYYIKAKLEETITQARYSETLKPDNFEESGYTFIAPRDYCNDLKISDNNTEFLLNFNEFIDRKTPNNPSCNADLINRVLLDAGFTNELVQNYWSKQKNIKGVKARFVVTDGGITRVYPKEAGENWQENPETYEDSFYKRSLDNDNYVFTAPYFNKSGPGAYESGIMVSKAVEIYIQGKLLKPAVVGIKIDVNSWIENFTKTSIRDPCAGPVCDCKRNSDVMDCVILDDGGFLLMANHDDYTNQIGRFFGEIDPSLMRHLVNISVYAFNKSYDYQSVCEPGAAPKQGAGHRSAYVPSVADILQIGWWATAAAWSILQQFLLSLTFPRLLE
T1 sequence (P54289 957-1103 partner limits assumed): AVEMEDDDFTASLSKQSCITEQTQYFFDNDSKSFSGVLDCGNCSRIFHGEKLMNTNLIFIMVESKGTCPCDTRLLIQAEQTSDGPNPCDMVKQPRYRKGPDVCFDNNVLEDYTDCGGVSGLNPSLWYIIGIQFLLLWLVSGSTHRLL
T1 sequence (Q02641 whole entry partner): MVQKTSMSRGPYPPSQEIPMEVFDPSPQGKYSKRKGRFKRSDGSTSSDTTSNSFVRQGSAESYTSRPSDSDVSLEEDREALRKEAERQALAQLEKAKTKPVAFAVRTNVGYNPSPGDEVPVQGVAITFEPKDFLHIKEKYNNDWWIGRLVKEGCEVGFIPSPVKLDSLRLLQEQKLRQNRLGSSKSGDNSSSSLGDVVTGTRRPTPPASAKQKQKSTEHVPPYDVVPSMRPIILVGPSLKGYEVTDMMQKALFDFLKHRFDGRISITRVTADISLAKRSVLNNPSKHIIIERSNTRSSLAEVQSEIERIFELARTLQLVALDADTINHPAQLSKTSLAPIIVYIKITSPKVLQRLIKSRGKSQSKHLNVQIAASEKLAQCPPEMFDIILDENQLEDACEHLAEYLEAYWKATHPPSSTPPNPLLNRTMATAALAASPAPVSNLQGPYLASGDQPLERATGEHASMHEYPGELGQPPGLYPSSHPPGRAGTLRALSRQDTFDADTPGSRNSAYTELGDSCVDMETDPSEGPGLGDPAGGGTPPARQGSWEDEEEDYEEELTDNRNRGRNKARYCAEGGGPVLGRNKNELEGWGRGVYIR
Protocol: Measurement of N-type Ca^2+ Channel Blocking Potencies of Compounds in IMR-32 Cells Using the Fluorescent Ca^2+ Indicator Indo-1
IMR-32 cells are a human tumoral cell line of neural origin. […] Calcium flux into these cells may be induced by stimulation with elevated potassium concentrations. The L-channel component of calcium flux may be blocked by adding 5 μM nitrendipine. The remaining component of calcium entry into the IMR-32 cells is due to calcium flux through N-type calcium channels. Intracellular calcium concentrations are measured using the fluorescent calcium indicator Indo-1. The effect of drug concentration on calcium uptake is studied.
The IMR-32 cell line was obtained from the American Type Culture Collection (Rockville, Md.). Cells were grown in Eagle's Minimum Essential Medium with Earle's salts supplemented with 10% fetal bovine serum, 2 mM L-Gln and antibiotic/antimycotic mixture (Gibco). At approximately 80% confluency, differentiation was induced by the addition of 1 mM dibutyryl cAMP and 2.5 μM bromodeoxyuridine to the medium. After 7 to 13 days of differentiation, cells were detached using 0.5 mM EDTA and loaded with 5 μM Indo-1 acetoxymethyl ester (Molecular Probes, Eugene, Oreg.) at 30° C. for 45 minutes. Loaded cells were washed twice, resuspended (˜10^7 cells/mL) in assay buffer (10 mM HEPES/Tris pH 7.4 in Hank's Balanced Salt Solution without bicarbonate or phenol red containing 0.5% bovine serum albumin) and kept on ice until use. Fluorescence measurements were carried out in a Photon Technology International (PTI, South Brunswick, N.J.) Model RF-F3004 spectrofluorometer with dual emission monochromators using excitation at 350 nm and emission at 400 and 490 nm. The instrument was equipped with a thermostated cuvette holder with stirring capabilities as well as with a computer-controlled pump which allowed for reagent addition during measurement. Instrument control and data collection was done by PTI's OSCAR software running on an IBM compatible computer. Different concentrations of the test compounds (60 μL in dimethyl sulfoxide) were added to 5.94 mL of assay buffer containing approximately 3×10^6 loaded cells, and 5 μM Nitrendipine (in 30 μL EtOH) to block L-type Ca^2+ channels. Samples were incubated for 10 minutes at 30° C. and the aliquot into three 10×10 mm disposable acrylic cuvettes. Emission signals at 400 and 490 nm were acquired from each cuvette at 30° C. for 50 seconds. At 20 seconds after the start of reading, cells were depolarized by the addition of 160 μL of stimulation solution (1 M KCl, 68 mM CaCl2) to the cuvette via the computer-controlled pump. Ratio of dual emission signals (400/490 nm), which is proportional to intracellular Ca^2+ concentration, was plotted against time, and the difference between maximal response after stimulation and basal value (before stimulation) was determined. Values obtained in this way were plotted as a function of drug concentration. IC50 values of test compounds were calculated by fitting a four-parameter logistic function to the data using the least squares method.

| SMILES | melting point | IC50 [1] |
| --- | --- | --- |
| CC(C)C[C@@H](C(=O)NCCCC(c1ccc(F)cc1)c1ccc(F)cc1)N(C)C1CCCCC1 (as salt: hydrochloride) [Example 21, (S)-2-(Cyclohexyl-methyl-amino)-4-methyl-pentanoic acid [4,4-bis-(4-fluoro-phenyl)-butyl]-amide monohydrochloride] | 73 to 83 °C | – |
| CC(C)C[C@@H](C(=O)NCCCC(c1ccc(F)cc1)c1ccc(F)cc1)N1CCOCC1 (as salt: hydrochloride) [Example 23, (S)-4-Methyl-2-morpholin-4-yl-pentanoic acid [4,4-bis-(4-fluoro-phenyl)-butyl]-amide monohydrochloride] | 63 to 78 °C | – |
| CC(C)C[C@@H](C(=O)NCCC(c1ccccc1)c1ccccc1)N(C)C1CCCCC1 (as salt: hydrochloride) [Example 25, (S)-2-(Cyclohexyl-methyl-amino)-4-methyl-pentanoic acid (3,3-diphenyl-propyl)-amide monohydrochloride] | 67 to 86 °C | – |
| CC(C)C[C@@H](C(=O)NCCCC(c1ccc(F)cc1)c1ccc(F)cc1)N(C)C1CCOCC1 (as salt: hydrochloride) [Example 27, (S)-4-Methyl-2-[methyl-(tetrahydro-pyran-4-yl)-amino]-pentanoic acid [4,4-bis-(4-fluoro-phenyl)-butyl]-amide monohydrochloride] | 75 to 92 °C | – |
| CC(C)C[C@H](NC(C)C)C(=O)N1CCN(C(c2ccc(F)cc2)c2ccc(F)cc2)CC1 (as salt: hydrochloride) [Example 49, (S)-1-{4-[Bis-(4-fluoro-phenyl)-methyl]-piperazin-1-yl}-2-isopropylamino-4-methyl-pentan-1-one monohydrochloride] | 100 to 103 °C | – |
| CC(C)[C@@H](C(=O)NCCCC(c1ccc(F)cc1)c1ccc(F)cc1)N(C)C1CCCCC1 (as salt: hydrochloride) [Example 69, (S)-N-[4,4-Bis-(4-fluoro-phenyl)-butyl]-2-(cyclohexyl-methyl-amino)-3-methyl-butyramide] | 82 to 86 °C | – |
| CC(C)[C@H](NC1CCCCC1)C(=O)NCCCC(c1ccc(F)cc1)c1ccc(F)cc1 (as salt: hydrochloride) [Example 70, (S)-N-[4,4-Bis-(4-fluoro-phenyl)-butyl]-2-cyclohexylamino-3-methyl-butyramide] | 49 to 53 °C | – |
| CN[C@H](C(=O)NCCCC(c1ccc(F)cc1)c1ccc(F)cc1)C(C)C (as salt: hydrochloride) [Example 73, (S)-3-Methyl-2-methylamino-butanoic acid [4,4-bis-(4-fluorophenyl)-butyl]-amide monohydrochloride] | 85 to 90 °C | – |
| CC(C)C[C@H](NC(=O)N1CCCCCC1)C(=O)NCC(c1ccccc1)c1ccccc1 [Example 4, (S)-Azepane-1-carboxylic acid [1-(2,2-diphenyl-ethylcarbamoyl)-3-methyl-butyl]-amide] | 194 to 195 °C | 3300 nM |
| CC(C)C[C@H](NC(=O)N1CCCCCC1)C(=O)NCCC(c1ccccc1)c1ccccc1 [Example 5, (S)-Azepane-1-carboxylic acid [1-(3,3-diphenyl-propylcarbamoyl)-3-methyl-butyl]-amide] | 144 to 145 °C | 1800 nM |
| CC(C)C[C@H](NC(=O)N1CCCCCC1)C(=O)NCCCC1(c2ccccc2)C(=O)N(C)c2ccccc21 (stereo partly drawn) [Example 10, (S)-Azepane-1-carboxylic acid {3-methyl-1-[3-(1-methyl-2-oxo-3-phenyl-2,3-dihydro-1H-indol-3-yl)-propylcarbamoyl]-butyl}-amide] | 181 to 182 °C | 2600 nM |
| CC(C)C[C@H](NC(=O)N1CCCCCC1)C(=O)NCc1nn(-c2ccccc2)c2ccccc12 [Example 11, (S)-Azepane-1-carboxylic acid {3-methyl-1-[(1-phenyl-1H-indazol-3-ylmethyl)-carbamoyl]-butyl}-amide] | 135 to 136 °C | 4000 nM |

The remaining lines, values ahead:

| melting point | IC50 [1] | SMILES |
| --- | --- | --- |
| 55 to 68 °C | – | CC(C)=CCN(C)[C@@H](CC(C)C)C(=O)NCCCC(c1ccc(F)cc1)c1ccc(F)cc1 (as salt: hydrochloride) [Example 13, (S)-4-Methyl-2-[methyl-(3-methyl-but-2-enyl)-amino]-pentanoic acid [4,4-bis-(4-fluoro-phenyl)-butyl]-amide monohydrochloride] |
| 100 to 103 °C | – | CC(C)C[C@H](NC(C)C)C(=O)NCCCC(c1ccc(F)cc1)c1ccc(F)cc1 (as salt: hydrochloride) [Example 19, (S)-2-Isopropylamino-4-methyl-pentanoic acid [4,4-bis-(4-fluoro-phenyl)-butyl]-amide monohydrochloride] |
| 60 to 72 °C | – | CC(C)C[C@@H](C(=O)NCCCC(c1ccc(F)cc1)c1ccc(F)cc1)N(C)C (as salt: hydrochloride) [Example 20, (S)-2-Dimethylamino-4-methyl-pentanoic acid [4,4-bis-(4-fluoro-phenyl)-butyl]-amide monohydrochloride] |
| 72 to 80 °C | – | CC(C)N[C@H](C(=O)NCCCC(c1ccc(F)cc1)c1ccc(F)cc1)C(C)C (as salt: hydrochloride) [Example 65, (S)-N-[4,4-Bis-(4-fluoro-phenyl)-butyl]-2-isopropylamino-3-methyl-butyramide] |
| 77 to 81 °C | – | CCC(C)N[C@H](C(=O)NCCCC(c1ccc(F)cc1)c1ccc(F)cc1)C(C)C (stereo partly drawn) (as salt: hydrochloride) [Example 66, (S)-N-[4,4-Bis-(4-fluoro-phenyl)-butyl]-2-sec-butylamino-3-methyl-butyramide] |
| 155 to 156 °C | – | CC(C)C[C@@H](C(=O)NCCCC(c1ccc(F)cc1)c1ccc(F)cc1)N(C)C(C)C (as salt: hydrochloride) [Example 68, (S)-2-(Isopropyl-methyl-amino)-4-methyl-pentanoic acid [4,4-bis-(4-fluoro-phenyl)-butyl]-amide] |
| 50 to 55 °C | 1300 nM | CC(C)C[C@H](NC(=O)OC(C)(C)C)C(=O)NCCCC(c1ccc(F)cc1)c1ccc(F)cc1 [Example 6, (S)-{1-[4,4-Bis-(4-fluoro-phenyl)-butylcarbamoyl]-3-methyl-butyl}-carbamic acid tert-butyl ester] |
